Test results: publication PMC13316043, “Structural basis of NSD2 degradation via targeted recruitment of SCF-FBXO22” (Nature Communications, 2026)
Read-outs that look alike come from different tables or passages of the source.

Key:
[1] = target: T1, *NSD2 PWWP1 ubiquitination by SCF^FBXO22 (Homo sapiens, UniProt O96028+Q8NEZ5); assay: Ubiquitination assay using purified components; format: biochemical; conditions: for SCF^FBXO22-dependent ubiquitination of *NSD2 PWWP1: compound at 0.5 µM, fluorescent SDS-PAGE; for hook effect upon titration in ubiquitination assay: compound titration
T1 construct: fluorescently labeled NSD2-PWWP1 (*NSD2-PWWP1); the FIST domain of FBXO22 rather than full-length FBXO22 that is used in the ubiquitination; 6xHis (N, cleaved yes); GST (cleaved yes); made in house; host or cells: SKP1-FBXO22: Trichoplusia ni insect cells; NSD2 PWWP1 and NEDD8: E. coli BL21(DE3)-CodonPlus RIL
Experimental: Ubiquitination assays were performed by mixing 2 separate solutions. First, SKP1-FBXO22, fluorescently labeled NSD2-PWWP1 (*NSD2-PWWP1), and compounds, unless otherwise indicated, were pre-incubated for 15 min on ice. Second, UBA1, UBE2R2, UBE2D2 or UBE2L3 and ARIH1, NEDD8 ~ CUL1-RBX1, MgATP, and reaction buffer (20 mM HEPES pH 8, 200 mM NaCl, 0.5 mg/mL bovine serum albumin (BSA)) were combined on ice to generate a master mix. A standard volume of master mix was added to each reaction tube, and Ub was added to initiate the ubiquitination reaction containing 100µM Ub, 1µM SKP1-FBXO22, 0.5µM *NSD2 PWWP1, 0.5µM compound, 0.1µM UBA1, 1µM UBE2R2, 1µM UBE2D2 or 1µM UBE2L3, and 1µM ARIH1, 1µM NEDD8~CUL1-RBX1, and 5mM MgATP in reaction buffer. Ubiquitination assays comparing *NSD2 PWWP1 mutants were performed similarly, except that SKP1-FBXO22, *NSD2 PWWP1 mutants, and compounds were not incubated separately prior to the start of the reaction. The reactions proceeded at room temperature for 15 min until they were quenched by adding SDS Loading Buffer. The ubiquitinated *NSD2 PWWP1 was visualized by subjecting the reactions to SDS-PAGE and imaging using the Amersham Typhoon.

His-tagged NSD2 PWWP1 = target: T2, His-tagged NSD2 PWWP1 (Homo sapiens, UniProt O96028); assay: TR-FRET cooperativity (competition) assay: displacement of biotinylated NSD2 ligand UNC7096; format: binding
T2 sequence (O96028 211-350): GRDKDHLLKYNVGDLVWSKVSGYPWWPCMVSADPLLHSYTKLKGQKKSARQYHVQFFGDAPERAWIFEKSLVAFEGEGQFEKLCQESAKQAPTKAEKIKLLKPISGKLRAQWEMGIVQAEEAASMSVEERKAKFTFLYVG
Excerpt: Because of the direct interactions observed between FBXO22 and NSD2, we hypothesized that some degree of cooperative binding could facilitate complex stabilization. Therefore, we developed a TR-FRET assay to monitor the interaction between his-tagged NSD2 and a biotinylated NSD2 ligand, UNC7096, that is missing the modality for FBXO22-recruitment (Supplementary Fig. 3D)[20]. Given the positive FRET signal observed when both NSD2 PWWP1 and UNC7096 are present, we used this setup to evaluate the displacement of UNC7096 by UNC10088 in the presence or absence of the FBXO22 FIST domain (Supplementary Fig. 3D). […] Importantly, this FBXO22-dependent enhancement of NSD2 antagonism by UNC10088 was absent when C326 was substituted for alanine (Supplementary Fig. 3F). Taken together, the SCF^FBXO22-NSD2 PWWP1 structure both confirms prior results and provides additional insight into the surfaces that contribute to a cooperative interaction between NSD2 and FBXO22 to promote potent NSD2 polyubiquitination and degradation.
The TR-FRET assay was adapted to assess cooperativity from the following workflows previously reported[39],[40]. Assays were performed in white, low-volume, flat-bottom, nonbinding 384-well microplates (Greiner, Catalog No. 784904) with a final assay volume of 10 μL per well. The assay buffer contained 20 mM Tris–HCl (pH 7.5) and 150mM NaCl, 0.05% Tween-20 (v/v), 2mM DTT, and 1% DMSO (v/v). LANCE Europium (Eu)-W8044 Streptavidin conjugate (2 nM) and LANCE Ultra ULight-anti6x-His labeled antibodies (10 nM) were used as donor and acceptor fluorophores associated with the tracer ligand and protein, respectively. Final assay concentrations of 63 nM His-tagged NSD2 PWWP1 and 31 nM of UNC7096 (a biotinylated version of the NSD2 ligand) as a tracer ligand were used for compound testing. UNC8732, UNC10088, and UNC10415667 were diluted in a 10-point, 3-fold serial dilution, and indicated compounds were pre-incubated with FBXO22 FIST for 30 min. A master mix of NSD2 PWWP1, UNC7096, and TR-FRET reagents was made prior to its addition to the compounds and/or FBXO22 FIST. The plates were sealed with metallic covers, mixed gently for 1 min, and incubated in the dark for 1 h. After 1 h, the plate was read on an EnVision 2103 plate reader with a 320 nm excitation filter and 615 nm/ 665 nm emission filters simultaneously with a dual mirror D400/D630 and a 100 μs delay. […] Raw TR-FRET signals were normalized to a high inhibition control (10 μM of UNC10088) and negative control (1% DMSO). The normalized TR-FRET signals were plotted against the compound concentrations. […] Ki values were calculated from the IC50s using the tight-binding model[41],[42]. The cooperativity factor (α) was calculated as the ratio of Ki (Binary)/ Ki (Ternary), with α > 1 indicating positive cooperativity between NSD2 PWWP1 and FBXO22 FIST based on its disruption of NSD2 binding to UNC7096.

[2] = compound alone (buffer, no FBXO22 FIST), tracer UNC7096, read-out: IC50, competitive TR-FRET, binding to NSD2 PWWP1

T1 sequence (Q8NEZ5 whole entry, one chain of several, the tested form may be a part): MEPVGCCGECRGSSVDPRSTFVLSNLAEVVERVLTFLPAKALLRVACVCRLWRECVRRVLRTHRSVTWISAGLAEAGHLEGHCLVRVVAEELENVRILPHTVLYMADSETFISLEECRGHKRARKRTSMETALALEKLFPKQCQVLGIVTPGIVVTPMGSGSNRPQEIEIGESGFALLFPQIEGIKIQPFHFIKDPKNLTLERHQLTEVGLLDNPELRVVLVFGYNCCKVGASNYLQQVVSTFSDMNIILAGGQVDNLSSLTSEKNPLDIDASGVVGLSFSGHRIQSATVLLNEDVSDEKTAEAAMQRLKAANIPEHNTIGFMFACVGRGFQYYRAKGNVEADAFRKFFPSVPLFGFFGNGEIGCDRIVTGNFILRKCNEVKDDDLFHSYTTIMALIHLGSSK

Row | Structure (SMILES) | SCF^FBXO22-dependent ubiquitination of *NSD2 PWWP1 [1] | hook effect upon titration in ubiquitination assay [1] | IC50 (His-tagged NSD2 PWWP1; FBXO22 FIST C326A variant present, read-out: IC50, competitive TR-FRET, in the presence of C326A FIST) [nM] | IC50 (His-tagged NSD2 PWWP1; FBXO22 FIST present, reagents not preincubated, read-out: IC50, competitive TR-FRET, in the presence of FBXO22 FIST without preincubation) [nM] | IC50 (His-tagged NSD2 PWWP1; WT FBXO22 FIST present, compound pre-incubated with FIST 30 min, read-out: IC50, competitive TR-FRET, in the presence of FBXO22 FIST) [nM] | IC50 (His-tagged NSD2 PWWP1; [2]) [nM]
1 | O=C1COc2cc(C(=O)N(Cc3ccc(C(=O)Nc4ccc5c(c4)CCN(C(=O)CCCCC(O)S(=O)(=O)O)C5)cc3)C3CC3)ccc2N1 (stereo not shown) [UNC10088] | promotes ubiquitination | observed hook effect | 227 ± 10 | 108 | 101 ± 8 | 248 ± 22
2 | Cc1cc(C=O)ccc1C(=O)N1CCc2cc(NC(=O)c3ccc(CN(C(=O)c4ccc5c(c4)OCC(=O)N5)C4CC4)cc3)ccc2C1 [UNC12149] | significant in vitro NSD2 ubiquitination |  |  |  |  | 
3 | O=Cc1ccc(C(=O)N2CCc3cc(NC(=O)c4ccc(CN(C(=O)c5ccc6c(c5)OCC(=O)N6)C5CC5)cc4)ccc3C2)cc1 [UNC10415667] | to the same extent as UNC10088 | characteristic hook effect |  |  |  | 159 ± 24
